Values joined by “and” are separate entries in the source; they are usually repeats but may differ in a detail not shown here. Equal values may be shown once.
Key:
Format in all cases: in vitro ADME
[1] = target: T1, human PEPT1 (Homo sapiens, UniProt P46059); experiment: Direct uptake transporter assay, PEPT1; conditions: for Accumulation in transporter transfected cells: PEPT1-transfected cells; for Accumulation in parental cells: parental CHO cells (PEPT1 line)
T1 sequence (P46059 1-708): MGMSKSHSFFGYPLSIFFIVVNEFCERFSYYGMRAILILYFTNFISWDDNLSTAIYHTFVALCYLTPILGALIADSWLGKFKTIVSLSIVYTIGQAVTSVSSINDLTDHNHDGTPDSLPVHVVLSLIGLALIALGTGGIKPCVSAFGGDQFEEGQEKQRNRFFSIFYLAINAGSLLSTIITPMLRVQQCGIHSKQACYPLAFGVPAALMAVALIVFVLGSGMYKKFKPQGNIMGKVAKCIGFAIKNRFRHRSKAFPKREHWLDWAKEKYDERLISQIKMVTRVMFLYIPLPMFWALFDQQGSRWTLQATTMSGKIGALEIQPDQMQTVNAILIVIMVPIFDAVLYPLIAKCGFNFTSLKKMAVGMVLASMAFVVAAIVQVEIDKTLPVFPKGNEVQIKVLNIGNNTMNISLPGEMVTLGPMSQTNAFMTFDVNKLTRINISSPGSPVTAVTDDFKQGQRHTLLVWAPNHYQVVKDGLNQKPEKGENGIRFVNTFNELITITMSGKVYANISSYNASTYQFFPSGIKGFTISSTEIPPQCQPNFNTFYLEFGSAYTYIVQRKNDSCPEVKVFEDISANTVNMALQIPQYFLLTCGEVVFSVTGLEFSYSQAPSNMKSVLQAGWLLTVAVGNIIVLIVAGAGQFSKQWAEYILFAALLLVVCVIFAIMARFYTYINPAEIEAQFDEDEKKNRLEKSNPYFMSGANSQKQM
Protocol: To determine whether memantine is a substrate of the human OATP2B1 (OATP-B), OCT1, OCT2, OAT3, PEPT1, PEPT2 uptake transporters.
The potential for memantine to be a substrate of an uptake transporter was determined directly by comparing the uptake of memantine into cells expressing the selected uptake transporter with its uptake into control cells. Memantine was added to transporter-expressing and control cells at two concentrations (PEPT1 and PEPT2 100 and 300 µM, OCT1 and OCT2 50 and 100 µM, OATP2B1 100 and 300 µM), and incubated with cells for 2 and 20 min at 37±1°C (75 µL final incubation volume). The final concentrations of memantine were selected to be the IC50 of reporter substrate transport inhibition established in the indirect transporter assay and one order of magnitude lower. Incubations were carried out as described in the indirect uptake transporter assays. The concentration of memantine was determined by LC-MS/MS.

[2] = target: T2, human OCT1 (Homo sapiens, UniProt O15245); experiment: Indirect uptake transporter assay, OCT1
T2 construct: expressed in transfected cells; host or cells: CHO cells
T2 sequence (O15245 1-554): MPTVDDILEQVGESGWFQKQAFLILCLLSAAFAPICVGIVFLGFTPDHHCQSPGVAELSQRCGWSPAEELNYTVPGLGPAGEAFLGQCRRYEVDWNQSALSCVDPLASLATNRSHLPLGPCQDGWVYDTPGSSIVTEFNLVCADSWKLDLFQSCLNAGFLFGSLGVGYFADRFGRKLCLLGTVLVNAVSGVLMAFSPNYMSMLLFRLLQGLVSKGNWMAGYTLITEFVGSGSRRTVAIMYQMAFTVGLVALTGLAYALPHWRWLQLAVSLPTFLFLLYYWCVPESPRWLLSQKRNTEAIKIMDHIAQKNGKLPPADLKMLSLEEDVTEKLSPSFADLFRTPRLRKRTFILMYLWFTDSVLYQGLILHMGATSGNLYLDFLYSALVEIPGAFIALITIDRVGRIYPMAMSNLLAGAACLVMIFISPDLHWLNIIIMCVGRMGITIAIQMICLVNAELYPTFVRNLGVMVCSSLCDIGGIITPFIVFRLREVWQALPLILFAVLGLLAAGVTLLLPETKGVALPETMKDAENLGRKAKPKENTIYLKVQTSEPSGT
From the text: To determine whether memantine is an inhibitor of the human OATP2B1 (OATP-B), OCT1, OCT2, OAT3, PEPT1, PEPT2 uptake transporters. The standard uptake transporter assay is an indirect, inhibitory-type screening assay, performed with cold test article, which in this case was memantine. It provides information on any interaction (substrate or inhibitor) between selected uptake transporters and memantine that would affect the transport of the reporter compound. […] A radiolabeled reporter substrate is transported into the cells transfected with the selected human uptake transporter, and the inhibitory effect of memantine on the transport of this reporter substrate is measured. Values are presented on a relative scale; 100% defined as transport in the presence of the solvent and without memantine (no inhibition), and 0% defined as transport detected without transporter activity. IC50 is defined as the concentration required to inhibit the transport of the reporter substrate by 50%. […]
(§1) After the experiment cells were rinsed with 2 x 100µl of Krebs-Henseleit buffer and lysed with 50 µl of 0.1M NaOH. ^3H-estrone-3-sulfate, ^14C-TEA, ^14C-metformin and ^3H-Gly-Sar transport was determined by total radioactivity by transferring an aliquot (35µl) from each well to a vial containing liquid scintillant for analysis.

[3] = target: T1, human PEPT1; experiment: Indirect uptake transporter assay, PEPT1
From the text: To determine whether memantine is an inhibitor of the human OATP2B1 (OATP-B), OCT1, OCT2, OAT3, PEPT1, PEPT2 uptake transporters. The standard uptake transporter assay is an indirect, inhibitory-type screening assay, performed with cold test article, which in this case was memantine. It provides information on any interaction (substrate or inhibitor) between selected uptake transporters and memantine that would affect the transport of the reporter compound. […] A radiolabeled reporter substrate is transported into the cells transfected with the selected human uptake transporter, and the inhibitory effect of memantine on the transport of this reporter substrate is measured. Values are presented on a relative scale; 100% defined as transport in the presence of the solvent and without memantine (no inhibition), and 0% defined as transport detected without transporter activity. IC50 is defined as the concentration required to inhibit the transport of the reporter substrate by 50%.
The uptake transporter assay was carried out under the conditions described in the table below, with either CHO cells or MDCKII cells stably expressing the respective uptake transporter.
Duplicate incubations of memantine (0 or DMSO control, 0.41, 1.2, 3.7, 11, 33, 100 and 300 µM) were conducted per concentration on transfected and in parental cells. A reference inhibitor (positive control, duplicate) was incubated in transfected cells.
CHO cells were cultured in a 1:1 mixture of Dubelcco’s Modified Eagle’s Medium (DMEM, Lonza, Allendale, NJ) and Ham's F-12 (F-12, Lonza, Allendale, NJ) and MDCKII cells in DMEM at 37°C in an atmosphere of 95:5 air:CO2. […]
as §1

CC12CC3CC(C)(C1)CC(N)(C3)C2 [memantine]
Highest Fold Activation ([1]; PEPT1, 100µM, 20 min): 1.1 (100µM, 20 min)
Accumulation in transporter transfected cells ([1]; 2 min, 100 µM): 1073 pmol/mg
Accumulation in transporter transfected cells ([1]; 2 min, 300 µM): 2290 pmol/mg
Accumulation in transporter transfected cells ([1]; 20 min, 100 µM): 1087 pmol/mg
Accumulation in transporter transfected cells ([1]; 20 min, 300 µM): 1682 pmol/mg
substrate of PEPT1 uptake transporter ([1]; no preferential accumulation in transfected over parental cells): not a substrate
Accumulation in parental cells ([1]; 2 min, 100 µM): 969 pmol/mg
Accumulation in parental cells ([1]; 2 min, 300 µM): 2389 pmol/mg
Accumulation in parental cells ([1]; 20 min, 100 µM): 981 pmol/mg
Accumulation in parental cells ([1]; 20 min, 300 µM): 1614 pmol/mg
Maximal Inhibition ([2]; OCT1, up to 300 µM): ~94%
IC50 ([2]; OCT1, probe in Table 5: Gly-Sar (1.8 μM), methods and text: TEA): 3.5 µM and 3.51 µM
Maximal Inhibition ([3]; PEPT1, up to 300 µM): ~62%
IC50 ([3]; PEPT1-mediated glycylsarcosine transport): 280 µM
IC50 ([3]; PEPT1, probe printed in Table 5: E3S (1 μM), methods and text: Gly-Sar): 281 µM

— article PMC3269340, “Pharmacokinetics of memantine in rats and mice” (PLoS Currents, 2012)
